# Measurements taken from publication PMC8922279, “Identification of β-Lactams Active against Mycobacterium tuberculosis by a Consortium of Pharmaceutical Companies and Academic Institutions” (ACS Infectious Diseases, 2022).
# Where two headings read alike, the source gives them in different places.
# Key:
# Mtb H37Rv [1] = assay: MIC90 against replicating (R) Mtb H37Rv, with or without clavulanate; assay type: cell-based, Mycobacterium tuberculosis; settings: Table S4; for Mtb H37Rv R + CLAV (MIC90): clavulanate 4 μg/mL; for Mtb H37Rv R (MIC90): no clavulanate
# S. aureus = assay: Microbial spectrum, S. aureus; assay type: cell-based, Staphylococcus aureus; settings: clavulanate 4 μg/mL; Table S4
# Mtb H37Rv [2] = assay: MIC90 against nonreplicating (NR, 4-stress) Mtb H37Rv, with or without clavulanate; assay type: cell-based, Mycobacterium tuberculosis; settings: 4-stress nonreplicating, Table S4; for Mtb H37Rv NR + CLAV (MIC90): clavulanate 4 μg/mL; for Mtb H37Rv NR (MIC90): no clavulanate
# [3] = In vitro plasma stability, cynomolgus monkey plasma; settings: 2 μM, 37 °C, time point 120 min
# plasma proteins [4] = assay: Plasma protein binding (equilibrium dialysis), human; settings: 2 μM
# P. aeruginosa = assay: Microbial spectrum, P. aeruginosa; assay type: cell-based, Pseudomonas aeruginosa; settings: clavulanate 4 μg/mL; Table S4
# E. coli = assay: Microbial spectrum, E. coli; assay type: cell-based, Escherichia coli; settings: clavulanate 4 μg/mL; Table S4
# [5] = Stability in simulated gastric fluid (SGF); settings: 10 μM, pH 1.2, room temperature
# [6] = Mouse PK in uninfected CD-1 mice (i.v. and p.o.)
# [7] = In vitro plasma stability, beagle dog plasma; settings: 2 μM, 37 °C, time point 120 min
# [8] = In vitro plasma stability, human plasma; settings: 2 μM, 37 °C, time point 120 min
# plasma proteins [9] = assay: Plasma protein binding (equilibrium dialysis), beagle dog; settings: 2 μM
# plasma proteins [10] = assay: Plasma protein binding (equilibrium dialysis), SD rat; settings: 2 μM
# plasma proteins [11] = assay: Plasma protein binding (equilibrium dialysis), cynomolgus monkey; settings: 2 μM
# C. albicans = assay: Microbial spectrum, C. albicans; assay type: cell-based, Candida albicans; settings: no clavulanate; Table S4
# Caco-2 cells = assay: Caco-2 permeability / efflux transporter substrate; settings: for Caco-2 Mean Papp A to B / Caco-2 Mean Papp B to A: 3 μM, pH 7.4, 120 min
# [12] = In vitro plasma stability, SD rat plasma; settings: 2 μM, 37 °C, time point 120 min
# [13] = Stability in fasted simulated intestinal fluid (FaSSIF); settings: 10 μM, pH 6.5, room temperature
# [14] = In vitro plasma stability, CD-1 mouse plasma; settings: 2 μM, 37 °C, time point 120 min
# plasma proteins [15] = assay: Plasma protein binding (equilibrium dialysis), CD-1 mouse; settings: 2 μM
# in vivo [16] = settings: DHP-1 knockout, mouse, sc, 300 mg/kg
# [17] = 300 mg/kg sc, uninfected DHP-1 mice
# wild-type Mtb H37Rv = assay type: in vivo, 129sv DHP-1 knockout mice
# [18] = female, 129sv DHP-1 knockout, mouse, in vivo
# in vivo [19] = settings: female, 129sv DHP-1 knockout, mouse, sc, 50 mg/kg
smiles,measurement,setting,value
CCc1nnc(SCC2=C(C(=O)O)N3C(=O)[C@@H](NC(=O)Cc4ccc(C5=NCCN5)cc4)[C@H]3SC2)s1 [TBBL-0000310],Mtb H37Rv R + CLAV (MIC90),Mtb H37Rv [1],0.5 µM
same,Mtb H37Rv R (MIC90),Mtb H37Rv [1],16.4 µM
same,S.aureus R + CLAV (MIC90),S. aureus,0.9 µM
same,Mtb H37Rv NR + CLAV (MIC90),Mtb H37Rv [2],92.2 µM
same,Mtb H37Rv NR (MIC90),Mtb H37Rv [2],90.4 µM
same,"Plasma stability % Remaining, Monkey",[3],110.3%
same,"% bound to plasma, Human",plasma proteins [4],60.7%
same,P.aeruginosa R + CLAV (MIC90),P. aeruginosa,> 100 µM
same,E.coli R + CLAV (MIC90),E. coli,49.9 µM
same,"SGF Stability, % remaining, 1h",[5]; 1 h,86.27%
same,"SGF Stability, % remaining, 24h",[5]; 24 h,0.61%
same,AUC[0-5h],[6]; i.v. dosing (5 mg/kg),39113 ng·h/mL
same,Vd,[6]; i.v. dosing (5 mg/kg),0.09 L/kg
same,clearance,[6]; i.v. dosing (5 mg/kg),128 mL/kg/h
same,half-life,[6]; i.v. dosing (5 mg/kg),28.8 min
same,k el,[6]; i.v. dosing (5 mg/kg),1.45 h⁻¹
same,AUC[0-5h],[6]; p.o. dosing (25 mg/kg),614 ng·h/mL
same,bioavailability,[6]; p.o. dosing (25 mg/kg),0.34%
same,"Plasma stability % Remaining, Dog",[7],79.6%
same,"Plasma stability % Remaining, Human",[8],78.9%
same,"% bound to plasma, Beagle Dog",plasma proteins [9],30.5%
same,"% bound to plasma, SD Rat",plasma proteins [10],81.2%
same,"% bound to plasma, Cynomolgus Monkey",plasma proteins [11],56.2%
same,C.albicans R (MIC90),C. albicans,> 100 µM
same,Caco-2 Mean Papp A to B,Caco-2 cells,0.46 10-6 cm/s
same,Caco-2 Mean Papp B to A,Caco-2 cells,0.43 10-6 cm/s
same,Caco-2 Efflux Ratio,Caco-2 cells; Caco-2,0.94
same,Caco-2 Mean Recovery % A to B,Caco-2 cells; Caco-2,99.13%
same,Caco-2 Mean Recovery % B to A,Caco-2 cells; Caco-2,102.93%
same,Caco-2 Rank Papp,Caco-2 cells; Caco-2,Low
same,Efflux Transporter Substrate,Caco-2 cells; Caco-2,Poor or no
same,"Plasma stability % Remaining, Rat",[12],80.0%
same,"FaSSIF Stability, % remaining, 6h",[13],98.8%
same,"FaSSIF Stability, % remaining, 24h",[13],95.07%
same,"Plasma stability % Remaining, Mouse",[14],82.2%
same,"% bound to plasma, CD-1 Mouse",plasma proteins [15],49.9%
O=C(O)C1=C(CSc2cccc[n+]2[O-])CS[C@@H]2[C@H](NC(=O)C(F)c3ccccc3)C(=O)N12 (some centres unmarked) [TBBL-0000004],Mtb H37Rv R + CLAV (MIC90),Mtb H37Rv [1],1.5 µM
same,Mtb H37Rv R (MIC90),Mtb H37Rv [1],1.2 µM
same,S.aureus R + CLAV (MIC90),S. aureus,1.4 µM
same,Mtb H37Rv NR + CLAV (MIC90),Mtb H37Rv [2],2.3 µM
same,Mtb H37Rv NR (MIC90),Mtb H37Rv [2],1.7 µM
same,"Plasma stability % Remaining, Monkey",[3],103.9%
same,"% bound to plasma, Human",plasma proteins [4],74.1%
same,P.aeruginosa R + CLAV (MIC90),P. aeruginosa,> 100 µM
same,E.coli R + CLAV (MIC90),E. coli,> 100 µM
same,AUC[0-5h],[6]; i.v. dosing (5 mg/kg),5075 ng·h/mL
same,Vd,[6]; i.v. dosing (5 mg/kg),1.02 L/kg
same,clearance,[6]; i.v. dosing (5 mg/kg),985 mL/kg/h
same,half-life,[6]; i.v. dosing (5 mg/kg),32.4 min
same,k el,[6]; i.v. dosing (5 mg/kg),0.96 h⁻¹
same,"Plasma stability % Remaining, Dog",[7],64.1%
same,"Plasma stability % Remaining, Human",[8],81.0%
same,"% bound to plasma, Beagle Dog",plasma proteins [9],59.2%
same,"% bound to plasma, SD Rat",plasma proteins [10],62.0%
same,"% bound to plasma, Cynomolgus Monkey",plasma proteins [11],78.2%
same,C.albicans R (MIC90),C. albicans,> 100 µM
same,Caco-2 Mean Papp A to B,Caco-2 cells,< 0.12 10-6 cm/s
same,Caco-2 Mean Papp B to A,Caco-2 cells,< 0.11 10-6 cm/s
same,Caco-2 Mean Recovery % A to B,Caco-2 cells; Caco-2,< 98.09%
same,Caco-2 Mean Recovery % B to A,Caco-2 cells; Caco-2,< 112.70%
same,Caco-2 Rank Papp,Caco-2 cells; Caco-2,Low
same,"Plasma stability % Remaining, Rat",[12],71.0%
same,"FaSSIF Stability, % remaining, 6h",[13],88.58%
same,"FaSSIF Stability, % remaining, 24h",[13],94.96%
same,"Plasma stability % Remaining, Mouse",[14],84.1%
same,"% bound to plasma, CD-1 Mouse",plasma proteins [15],65.5%
NC(C(=O)N[C@@H]1C(=O)N2C(C(=O)O)=C(CSc3cccc[n+]3[O-])CS[C@H]12)c1ccc(O)cc1 (some centres unmarked) [TBBL-0000652],AUC(0-t),in vivo [16],29400 ± 32900 ng·h/mL
same,Cmax,in vivo [16],22200 ± 21700 ng/mL
same,Tmax,in vivo [16],1 to 2 h
same,Comments (tolerability),[17],Recovered at t= 8h
same,Tlast,[17],2.0 to 4.0 h
same,"Log10 CFU per mouse (lungs), Mean","wild-type Mtb H37Rv; 50 mg/kg sc bid + clavulanate 100 mg/kg po bid, days 9-15, lungs day 16, untreated day 16 mean 9.1",8.6 Log10 CFU
same,reduction of lung CFU compared to untreated control mice,"wild-type Mtb H37Rv; mouse, in vivo",~0.5 log10
same,Tlast,[18],3.0 h
same,AUC(0-t),in vivo [19],11500 ng·h/mL
same,Cmax,in vivo [19],8320 ng/mL
same,Tmax,in vivo [19],1 h
